# Experimental data taken from patent US20140018242A1, “METHOD OF CROP ENHANCEMENT” (SYNGENTA PARTICIPATIONS AG, priority 2010, published 2014).
# What was measured:
# Type in all cases: in vivo
# Soybeans (Glycine max) [1] = experiment: Foliar application to soybeans, effects on yield (number and size of pods, root parameters); settings: 68 g AI/ha foliar, 29DAA; for No. of root tips, Mean (in %) relative to check / Root length, Mean (in %) relative to check: WinRhizo; for Mean no. of pods per plant, only pods >20 mm: check 1.8; for Mean no. of pods per plant, all pods considered: check 5.4; for pod length - sum per trmt (mm), only pods >20 mm: check 276; for pod length - sum per trmt (mm), all pods considered: check 452
# Protocol: Three week old soybean plants (5 replicates) were sprayed with respective test solutions. Test solutions contained the formulated test compound and the adjuvant Mero (0.1% v/v). Plants were kept under glasshouse conditions at 22° C. with a photo-period of 14 h. 29d after application the individual number and size of pods per plant were measured. Additionally, the overall root system of individual plants was scanned and analysed by the image analysis software ‘WinRhizo’ (Regent Instruments Inc., 2009). […] The average number of taller pods (related to number of seeds) was increased.
# Soybeans (Glycine max) [2] = experiment: Soil application (drench) to soybeans in rhizoboxes, effects on root system and shoot; settings: 30DAA; for Stem thickness (mm) below respective leaf, Mean / leaf area (cm^2), Mean: 0.12 mg AI per plant drench
# Protocol: Three two-week old soybean plants were transplanted to ‘rhizoboxes’ (ca. 12 L soil volume). One day later 0.12 mg Al of compound T1.070, wherein G is CO2Et, were applied (drench) to each plant. Plants were kept under glasshouse conditions at 22° C. with a photo-period of 14 h. 30 DAA the entire root system per rhizobox was scanned and analysed by the image analysis software ‘WinRhizo’ (Regent Instruments Inc., 2009).
# Soybeans (Glycine max) [3] = experiment: Foliar application to soybeans, effects on water consumption, plant height, chlorophyll content; settings: soybean, 26 days after spray; for water consumption: foliar spray 100 ga/ha (EC050) 21 days after sowing, no watering after spray; for plant height / chlorophyll content: foliar spray 100 ga/ha (EC050); for chlorophyll content: third trifoliate-leaf
# Protocol: Soybean plants were grown in a climate chamber at 22° C. during 14 h daytime and 20° C. during 10 h night at 70% rel.humidity. Plants were sprayed 21 days after sowing with a 100 ga/ha of the test compound, formulated as a standard EC050. Water status was adjusted befor spray for all pots, and plants not watered anymore after spray. After growing further 26 days in the controlled environment, the plant height, chlorophyll content of the third trifoliate-leaf, and water consumption was determined.
# Spring-wheat = experiment: Foliar application to spring-wheat, effects on water consumption, plant height; settings: 26 days after spray; for water consumption: foliar spray 50 ga/ha (EC050) 21 days after sowing, no watering after spray; for plant height: foliar spray 50 ga/ha (EC050)
# Protocol: Wheat plants were grown in a climate chamber at 18° C., 14 h daytime and 10 h night, at 70% rel.humidity. Plants were sprayed 21 days after sowing with a 50 ga/ha of the test compound, formulated as a standard EC050. Water status was adjusted before spray for all pots and plants not watered anymore after spray. After growing further 26 days in the controlled environment the plant height, and water consumption was determined.
# Barley (Hordeum vulqare) = experiment: Foliar application to barley, plant growth effects (plant height, tillers); settings: 12.5 ppm foliar, 9DAA; for av. tillers per plant: check 0
# Protocol: Five replicates (pots with three 10d old barley plants each) were sprayed with respective test solutions. Test solutions contained the formulated test compound and the adjuvant Mero (0.1% v/v). Plants were kept under glasshouse conditions at 22° C. with a photo period of 14 h. 9d after application the average plant height per replicate was measured and the number of tillers per replicate was counted. […] Additionally, the number of tillers were increased.
# [4] = test system: French beans (Phaseolus vulgaris); experiment: Soil application to French beans, effects on flowering (BBCH) and plant physiology (NDVI, NIR); set-up: NIR (Near infrared band reflectance): unit not given here; settings: 0.01 mg AI per plant drench, mean of 4 reps
# Protocol: Four two week old French bean plants were treated with 0.01 mg Al per plant as soil application (drench). Plants were kept under glasshouse conditions at 22° C. with a photo-period of 14 h. 15DAA the development stage of blossoms was assessed. 25DAA the photosynthetic capacity of plants (NDVI, NIR) was measured.
# [5] = soybean, drench 0.12 mg AI per plant
# [6] = soybean, drench 0.12 mg AI per plant, entire root system per rhizobox, WinRhizo
SMILES,"No. of root tips, Mean (in %) relative to check (Soybeans (Glycine max) [1]) [%]","Root length, Mean (in %) relative to check (Soybeans (Glycine max) [1]) [%]","Mean no. of pods per plant, only pods >20 mm (Soybeans (Glycine max) [1])","Mean no. of pods per plant, all pods considered (Soybeans (Glycine max) [1])","pod length - sum per trmt (mm), only pods >20 mm (Soybeans (Glycine max) [1]) [mm]","pod length - sum per trmt (mm), all pods considered (Soybeans (Glycine max) [1]) [mm]",water consumption (Soybeans (Glycine max) [3]) [ml/26 days],plant height (Soybeans (Glycine max) [3]) [cm],chlorophyll content (Soybeans (Glycine max) [3]) [reflectance],water consumption (Spring-wheat) [ml/26 days],plant height (Spring-wheat) [cm],av. plant height (cm) (Barley (Hordeum vulqare)),av. tillers per plant (Barley (Hordeum vulqare)),also measured
"CCOC(=O)OC1=C(c2c(C)cc(C)cc2C)C(=O)N(C)C12CCN(OC)CC2 [T1.070, wherein G is CO2Et]",43.7,32.0,3.2,5.8,516,674,393,17.3,39.9,208,27.4,,,"Stem thickness (mm) below respective leaf, Mean (Soybeans (Glycine max) [2]; 1st trifoliate leaf, untreated 2.04): 2.39 mm; leaf area (cm^2), Mean (Soybeans (Glycine max) [2]; 1st trifoliate leaf, untreated 42.95): 60.59 cm^2; Stem thickness (mm) below respective leaf, Mean (Soybeans (Glycine max) [2]; 1st true leaves, untreated 2.31): 2.87 mm; leaf area (cm^2), Mean (Soybeans (Glycine max) [2]; 1st true leaves, untreated 28.54): 39.82 cm^2; Stem thickness (mm) below respective leaf, Mean (Soybeans (Glycine max) [2]; 2nd trifoliate leaf, untreated 1.87): 2.09 mm; leaf area (cm^2), Mean (Soybeans (Glycine max) [2]; 2nd trifoliate leaf, untreated 58.76): 72.44 cm^2; Stem thickness (mm) below respective leaf, Mean (Soybeans (Glycine max) [2]; 3rd trifoliate leaf, untreated 1.60): 1.86 mm; leaf area (cm^2), Mean (Soybeans (Glycine max) [2]; 3rd trifoliate leaf, untreated 58.01): 77.72 cm^2; Stem thickness (mm) below respective leaf, Mean (Soybeans (Glycine max) [2]; 4th trifoliate leaf, untreated 1.11): 1.32 mm; leaf area (cm^2), Mean (Soybeans (Glycine max) [2]; 4th trifoliate leaf, untreated 18.09): 27.48 cm^2; Shoot growth (plant growth) (Soybeans (Glycine max) [2]; [5]): Enhanced plant growth was also observed by fortified shoot growth.; Visual impression of root system (Soybeans (Glycine max) [2]; [5]): clearly enhanced root system; Root parameters relative to check: Length (cm), rel. to check (0%) (Soybeans (Glycine max) [2]; [6]): 41.3%; Root parameters relative to check: RootVolume (cm3), rel. to check (0%) (Soybeans (Glycine max) [2]; [6]): 52.2%; Root parameters relative to check: SurfaceArea (cm2), rel. to check (0%) (Soybeans (Glycine max) [2]; [6]): 46.6%; Root parameters relative to check: Tips, rel. to check (0%) (Soybeans (Glycine max) [2]; [6]): 63.1%"
"CCOC(=O)OC1=C(c2c(C)cc(Cl)cc2C)C(=O)NC12CCN(OC)CC2 [T1iii.67, wherein G is CO2Et]",,,,,,,379,16.5,44.6,218,27.9,24.4,3.8,
"CCOC(=O)OC1=C(c2c(C)cc(Br)cc2C)C(=O)NC12CCN(OC)CC2 [T1iii.66, wherein G is CO2Et]",,,,,,,,,,,,27.2,4.2,
"CCOC(=O)OC1=C(c2c(C)cc(Cl)cc2C)C(=O)N(C)C12CCN(OC)CC2 [T1.067, wherein G is CO2Et]",18.8,16.1,3.4,6.0,545,682,376,16.5,43.4,219,26.9,,,
CON1CCC2(CC1)NC(=O)C(c1c(C)cc(C)cc1C)=C2O [Compound T1iii.70],,,,,,,,,,,,,,"BBCH (plant growth stage) ([4]; 15DAA, check 57): 58; NDVI (Normalized difference vegetative index) ([4]; 25DAA, check 0.431): 0.443; NIR (Near infrared band reflectance) ([4]; 25DAA, check 4.32): 4.92"
